Here are results for ten molecules from paper PMC7829355, “Antimicrobial Activity of Lipopeptide Biosurfactants Against Foodborne Pathogen and Food Spoilage Microorganisms and Their Cytotoxicity” (Frontiers in Microbiology, 2021).

In one data set the test system is Candida krusei ATCC 6258. Briefly: Antifungal susceptibility against yeast, broth microdilution in RPMI-1640. The data set is classed as cell-based. The following applies: for MIC: Pichia kudriavzevii, ATCC6258, C. krusei, RPMI-1640 liquid media. Here is the method:
The antifungal susceptibility test against yeasts was performed according to the broth microdilution method, as described previously ([Urbañski et al., 2002]; [Schwalbe et al., 2007]). Candida krusei ATCC 6258 was used as the quality control organism, to verify that antifungal concentrations were prepared properly. In addition, amphotericin B, an effective antifungal antibiotic produced by Streptomyces nodosus and part of the WHO List (World Health Organization) of Essential Medicines, was used as a reference compound. The test medium used was RPMI-1640 (with glutamine, without bicarbonate and with a pH indicator) broth with [3-(N-morpholino)]-propanesulfonic acid (MOPS) buffer. All tests were performed in U-shaped 96-well plates. Three technical replicates of each assay were carried out on the same day with the same culture and chemical compound with the aforementioned experiment repeated also in triplicate on different days using different cultures (biological replicates) resulting in a total of nine replicates for each assay. The yeasts tested were Zygosaccharomyces bailli NCYC 464 and Debaryomyces hansenii NCYC 102.

For another data set, the system named is Paecilomyces variotii. Briefly: Antifungal susceptibility against filamentous fungi, broth microdilution. The data set is classed as cell-based. Here is the method:
(§1) In this set of experiments, Candida krusei ATCC 6258 and amphotericin B were used to perform quality control tests for validation. As mentioned above, the test medium used was RPMI-1640 broth with MOPS buffer. Tests were performed in U-shaped 96-well plates in triplicates and the OD450nm was recorded after 7 days of incubation at 30°C. The fungi tested were Rhizopus stolonifer IMI 017314 and Paecilomyces variotii and Byssochamys fulva IMI 040021.
(In general: In broth dilution the organism is exposed to a series of concentrations in liquid medium.)

The test system of data set [1] is Rhizopus stolonifer IMI 017314. The data set is described as above. It counts as cell-based. Here is the method:
as §1

Data set [2] deals with Byssochamys fulva IMI 040021. The data set is described as above. The data set is classed as cell-based, Byssochlamys fulva. Here is the method:
as §1

In data set [3] the test system is Salmonella enterica NCTC 5188. Briefly: Antibacterial susceptibility, broth microdilution MIC. The data set is classed as cell-based. The following applies: NCTC5188, S. enterica, 24 h.
For another data set, the system named is Bacillus cereus MR59. The data set is described as above. The data set is classed as cell-based. The following applies: 24 h. Here is the method:
(§2) The antibacterial susceptibility testing was performed following the broth microdilution methodology, as described previously ([Schwalbe et al., 2007]), against both Gram-negative and Gram-positive foodborne pathogens and spoilage bacteria. The bacteria used were: Pseudomonas aeruginosa NCTC 10332, Salmonella enterica NCTC 5188, Escherichia coli K-12, Bacillus cereus MR59, Listeria monocytogenes 10403S, Carnobacterium divergens NCFB 2763, Leuconostoc mesenteroides NCIMB 08023, and Brochothrix thermosphacta NCDO 1676.
(§3) Two-fold dilutions were performed and 100 μL of each dilution was placed in each column of a flat bottomed 96-well plate. One column of the plate contained only the growth medium and served as the positive control while in another column contained 200 μL of the growth medium with the highest concentration of the lipopeptide tested (1,000 mg/L) and served as the negative control. Apart from the column that served as the negative control, the rest of the wells were inoculated with 100 μL of the bacterial culture tested. For the bacterial suspension preparation, cultures were incubated overnight in the appropriate medium (MHB or TSB). Bacterial density was adjusted to 0.5 McFarland and suspensions were subsequently diluted 1000 times using the growth test medium. The 96-well plates were then incubated at either 30or 37°C, depending on the optimal growth temperature of each microorganism, for 24 h and the OD620nm was assessed. The minimum inhibitory concentration (MIC) was defined as the lowest concentration of the antimicrobial agent tested that prevented any discernible growth after 24 h incubation.

The test system of data set [4] is Brochothrix thermosphacta NCDO 1676. Described as above. The following applies: food preservatives, 24 h. The data set is classed as cell-based. Here is the method: as §2, §3
In data set [5] the test system is Carnobacterium divergens NCFB 2763. Described as above. The conditions noted are these: C. divergens. The data set is classed as cell-based. As for the experimental part: as §2, §3
The test system of a further data set is Escherichia coli K-12. The description is as above. It counts as cell-based. The conditions noted are these: E. coli K-12, broth microdilution, 24 h. Here is the method: as §2, §3
The test system of data set [6] is Leuconostoc mesenteroides NCIMB 08023. The data set is described as above. It counts as cell-based. The conditions noted are these: 24 h. Here is the method: as §2, §3
Data set [7] has as its system Listeria monocytogenes 10403S. The data set is described as above. It counts as cell-based. The following applies: L. monocytogenes, 24 h. As for the experimental part: as §2, §3
The test system of data set [8] is Pseudomonas aeruginosa NCTC 10332. Described as above. The following applies: 24 h. It counts as cell-based. As for the experimental part:
as §2, §3

A further data set relates to Gram-positive bacteria. The data set can be described thus: Antibacterial broth microdilution MIC, summary over Gram-positive strains. The data set is classed as cell-based. The following applies: range over the Gram-positive strains; read-out: MICs for Gram-positive bacteria.
Data set [9] has as its system Caco-2 cells. The following applies: cited from earlier work; for IC50 cytotoxicity group, Caco cells: published IC50, MTT, ref literature review and EFSA database (Figure 4); for IC50: Caco-2 cells, ref Zhao et al.
The test system of the next data set is Vero cells. The conditions noted are these: cited from earlier work; for IC50 cytotoxicity group, Vero cells: published IC50, MTT, ref literature review and EFSA database (Figure 4).
In another data set the test system is Vero SF cells. Briefly: Cytotoxicity assay (CCK8, WST-8). As for the experimental part: The Vero SF cells line is recommended by EFSA to assess the toxigenic potential of Bacillus species used in animal nutrition ([EFSA, 2014]). Cells were cultured in Dulbecco’s modified Eagle’s medium supplemented with 10% FCS, 1% glutamine, and 1% penicillin-streptomycin. After 48 h, cell culture medium was replaced by fresh medium containing the tested compounds in various concentrations.
Cytotoxicity was determined through a commercial kit from SIGMA Aldrich (Saint-Louis, United States) named Cell Counting kit 8 (CCK8). This test is based on the water-soluble tetrazolium salt (WST-8) reduction by the dehydrogenase of the living cells only inducing the production of a yellow color formazan dye which is directly proportional to the number of cells. Twenty-four hours after addition the compounds, the WST-8 was added to the medium (100 μL/mL). After 2h incubation, absorption at […] was measured in a microplate-reader (Microplates reader SpectraMax® iD3, Molecular Devices, San Jose, United States) and values were expressed as percent of control.
As explained above, since some of the lipopeptides have limited solubility in aqueous solutions, prior to their cytotoxicity testing, the effect of the DMSO at the levels used to solubilize the lipopeptides, was assessed. […]
A general note: Tetrazolium dyes change colour on reduction, which living cells bring about.

Another data set concerns R. stolonifer. On the set-up: method as in Liu et al., 2014. The following applies: ref Liu et al., 2014; cited from earlier work.
Data set [10] concerns Caco-2 cells.
The subject of a further data set is C. divergens. The data set can be described thus: Nisin-lipopeptide combinations, broth microdilution checkerboard panel. It counts as cell-based, Carnobacterium divergens. The conditions noted are these: regardless of the surfactin concentrations; data not shown. The source says:
For testing the antibacterial activity by combining nisin and lipopeptides, the broth microdilution assay described above was used, following the broth microdilution checkerboard panel ([Schwalbe et al., 2007]).

The test system of data set [11] is Caco-2 cells. The data set can be described thus: Cytotoxicity assay (CCK8, WST-8). The following applies: estimated IC50 of this study, 24 h of contact.
Another data set has as its system Escherichia coli. On the set-up: method as in Dhanarajan et al., 2016. The following applies: purified surfactin homologues; ref Dhanarajan et al., 2016; cited from earlier work.
[12] abbreviates: nisin alone, lipopeptide alone, or lipopeptide with nisin at fixed 10 mg/L.

In brackets after ≈: the same amount, converted by molar mass. Several values for one entry are separate records, joined by “and”; a condition that tells them apart may be missing. Equal entries are not always repeated. Where two headings read alike, the source gives them in different places.

In general, IC50 refers to the concentration that inhibits the measured activity by half.

With `C[C@@H]1[C@H](O)[C@@H](C)/C=C/C=C/C=C/C=C/C=C/C=C/C=C/[C@H](O[C@@H]2O[C@H](C)[C@@H](O)[C@H](N)[C@@H]2O)C[C@@H]2O[C@](O)(C[C@@H](O)C[C@@H](O)[C@H](O)CC[C@@H](O)C[C@@H](O)CC(=O)O[C@H]1C)C[C@H](O)[C@H]2C(=O)O` [Amphotericin B, amphotericin B], the MIC came out at 0.5 mg/L (≈ 0.541 µM) with Candida krusei ATCC 6258 (24 h growth, read-out: MIC (mg/L) 24h); 0.5 mg/L (≈ 0.541 µM) in the data set on Candida krusei ATCC 6258 (48 h growth, read-out: MIC (mg/L) 48h); 0.06 µg/mL (≈ 0.0649 µM) in the data set with Paecilomyces variotii (Paecilomyces variotii, 168 h, 7 days of growth, RPMI-1640 liquid media, read-out: P. variotii MIC); 0.5 µg/mL (≈ 0.541 µM) in data set [1] (Rhizopus stolonifer, IMI017314, 168 h, 7 days of growth, RPMI-1640 liquid media, read-out: R. stolonifer MIC); 0.06 µg/mL (≈ 0.0649 µM) in data set [2] (Paecilomyces fulvus, IMI040021, 168 h, 7 days of growth, RPMI-1640 liquid media, read-out: B. fulva MIC).

As to `O=C(O)CN(CCN(CC(=O)O)CC(=O)O)CC(=O)O` [EDTA, ethylenediaminetetraacetic acid], the MIC in data set [3] stood at 14600 µg/mL (≈ 50000 µM); in the data set on Bacillus cereus MR59 (Bacillus cereus, MR59, B. cereus, read-out: MIC) it was 228 µg/mL (≈ 780 µM); in data set [4] (Brochothrix thermosphacta, NCDO1676, B. thermosphacta, read-out: MIC) it was 114 µg/mL (≈ 390 µM); in data set [5] (Carnobacterium divergens, NCFB2763, food preservatives, broth microdilution, 24 h, read-out: MIC), 55.6 µg/mL; in the data set on Escherichia coli K-12 (Escherichia coli, K12, read-out: MIC), 14600 µg/mL (≈ 50000 µM); in data set [6] (Leuconostoc mesenteroides, NCIMB08023, L. mesenteroides, read-out: MIC), 114 µg/mL (≈ 390 µM). Besides, the MIC in data set [7] (Listeria monocytogenes, 10403S, read-out: MIC) is 228 µg/mL (≈ 780 µM); in data set [8] (Pseudomonas aeruginosa, NCTC10332, P. aeruginosa, read-out: MIC) it was 7310 µg/mL (≈ 25000 µM); with Gram-positive bacteria, 190 µM to 780 µM and 55.6 µg/mL to 228 µg/mL.

For `Cc1ccc(C(C)C)cc1O` [carvacol], in the data set with Caco-2 cells [9], the “IC50 cytotoxicity group, Caco cells” value was “group 2 (group 2 with moderate cytotoxicity with IC50s between 10 and 100 mg/L)”. For the same molecule, the “IC50 cytotoxicity group, Vero cells” value in the data set with Vero cells was “group 2 (group 2 with moderate cytotoxicity with IC50s between 10 and 100 mg/L)”.

Take `C=O` [formaldehyde (E240), formaldehyde]: in the data set with Caco-2 cells [9], the “IC50 cytotoxicity group, Caco cells” value is on record as “group three (group three with significant cytotoxicity with IC50 lower than 10 mg/L)”. The “IC50 cytotoxicity group, Vero cells” value in the data set with Vero cells was “group 3 (group three with significant cytotoxicity with IC50 lower than 10 mg/L)”.

Regarding fengycin [Fengycin (F)], in the data set on Vero SF cells, the “cytotoxicity compared to nisin (E234)” value is listed as “less cytotoxic”.

Consider iturin, for which the “concentration at which growth of R. stolonifer is inhibited” value in the data set with R. stolonifer is given as 100 mg/L.

iturin A: the IC50 in the data set with Caco-2 cells [9] (2018) was 42 µg/mL; in the data set on Caco-2 cells [9] (2019), 28 µg/mL; with Vero cells (Vero cells, ref EFSA Panel on Additives and Products or Substances used in Animal Feed [FEEDAP], 2017), “around 16 mg/L”. Besides, the “IC50 cytotoxicity group, Caco cells” value in the data set on Caco-2 cells [9] is “group 2 (group 2 with moderate cytotoxicity with IC50s between 10 and 100 mg/L)”. The “IC50 cytotoxicity group, Vero cells” value with Vero cells is “group 2 (group 2 with moderate cytotoxicity with IC50s between 10 and 100 mg/L)”.

On to mycosubtilin, for which the “cytotoxicity compared to nisin (E234)” value in the data set with Caco-2 cells [10] is given as “three times less cytotoxic”.

On to nisin, for which the MIC is 6.71 µg/mL against Bacillus cereus MR59 (B. cereus); 0.10 to 0.20 µg/mL in data set [4] (B. thermosphacta); 3.35 µg/mL in [5] (food preservatives, broth microdilution, 24 h); 1000 µM in data set [5] (nisin); greater than 107.3 µg/mL against Escherichia coli K-12; 1.68 µg/mL in data set [6] (L. mesenteroides). In addition, the results for the MIC in [7] and in data set [8] (P. aeruginosa) were 6.71 µg/mL and greater than 107.3 µg/mL, respectively. For the same molecule, in the data set with Candida krusei ATCC 6258 (setting [12]), the “Lipopeptide MIC (mg/L) C. krusei” value is greater than 125 mg/L. The “Lipopeptide MIC (mg/L) P. variotii” value in the data set with Paecilomyces variotii (setting [12]) is on record as greater than 125 mg/L. Further, in data set [1] (setting [12]), the “Lipopeptide MIC (mg/L) R. stolonifer” value is greater than 125 mg/L. Besides, the “Lipopeptide MIC (mg/L) B. fulva” value in data set [2] (setting [12]) was greater than 125 mg/L. For the same molecule, the “MIC of nisin for C. divergens when combined with surfactin” value in the data set with C. divergens came to 3.35 µg/mL. For the same molecule, the “IC50 cytotoxicity group, Vero cells” value in the data set on Vero SF cells (estimated IC50 of this study, 24 h of contact) is reported as “group 1 (group 1 of molecules with low cytotoxicity, IC50 above 100 mg/L)”. Further, the “IC50 cytotoxicity group, Caco cells” value with Caco-2 cells [11] was “group three (group three with significant cytotoxicity with IC50 lower than 10 mg/L)”.

Take surfactin C15: the MICs in the data set on Escherichia coli was 60 mg/L.
